Experimental data reported in PMC7335359, “Design and Synthesis of Dihydroxamic Acids as HDAC6/8/10 Inhibitors” (Chemmedchem, 2020).
pIC50: −log10 of the molar value.

Key:
HDAC8 = target: T1, HDAC8 (Homo sapiens, UniProt Q9BY41); test: HDAC-Glo I/II enzymatic assay, HDAC8; type: biochemical; settings: read-out: HDAC8 pIC50 (converted)
T1 construct: purchased BPS Bioscience 50008
T1 sequence (Q9BY41 1-377): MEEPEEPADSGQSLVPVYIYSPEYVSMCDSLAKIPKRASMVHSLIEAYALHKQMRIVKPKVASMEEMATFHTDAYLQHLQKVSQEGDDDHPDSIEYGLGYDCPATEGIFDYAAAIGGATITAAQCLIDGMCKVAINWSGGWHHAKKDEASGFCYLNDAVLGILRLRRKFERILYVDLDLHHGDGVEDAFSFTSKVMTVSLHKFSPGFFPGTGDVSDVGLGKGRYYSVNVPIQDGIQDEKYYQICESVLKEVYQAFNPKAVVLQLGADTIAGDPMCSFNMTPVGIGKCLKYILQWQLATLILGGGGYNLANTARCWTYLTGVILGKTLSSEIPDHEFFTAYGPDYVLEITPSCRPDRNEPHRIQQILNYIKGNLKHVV
Protocol: (§1) Inhibitors were tested at eight serial dilutions in triplicate ranging from 50 μM–86,7 pM (HDAC6) or 100 μM–8,67 nM (HDAC1,2,3,8). Drug dosing was performed from 10 mM and 0.1 mM DMSO stock solutions with a D300e Digital Dispenser (Tecan). HDACs (7 ng/mL for HDAC1, 10 ng/mL for HDAC2, 200 ng/mL for HDAC3/Ncor2 complex, 100 ng/mL for HDAC6, 200 ng/mL for HDAC8) and inhibitors were incubated together for 30 min at room temperature. After addition of the HDAC‐Glo™ I/II reagent, plates were shaken (800 rpm orbital shaker, 30 s), centrifuged (300 g, 1 min) and incubated at room temperature for 30 min. Luminescence was detected with a CLARIOstar (BMG Labtech) plate reader.

HDAC6 = target: T2, HDAC6 (Homo sapiens, UniProt Q9UBN7); test: HDAC-Glo I/II enzymatic assay, HDAC6; type: biochemical; settings: read-out: HDAC6 pIC50 (converted)
T2 construct: purchased BPS Bioscience 50006
T2 sequence (Q9UBN7 1-1215): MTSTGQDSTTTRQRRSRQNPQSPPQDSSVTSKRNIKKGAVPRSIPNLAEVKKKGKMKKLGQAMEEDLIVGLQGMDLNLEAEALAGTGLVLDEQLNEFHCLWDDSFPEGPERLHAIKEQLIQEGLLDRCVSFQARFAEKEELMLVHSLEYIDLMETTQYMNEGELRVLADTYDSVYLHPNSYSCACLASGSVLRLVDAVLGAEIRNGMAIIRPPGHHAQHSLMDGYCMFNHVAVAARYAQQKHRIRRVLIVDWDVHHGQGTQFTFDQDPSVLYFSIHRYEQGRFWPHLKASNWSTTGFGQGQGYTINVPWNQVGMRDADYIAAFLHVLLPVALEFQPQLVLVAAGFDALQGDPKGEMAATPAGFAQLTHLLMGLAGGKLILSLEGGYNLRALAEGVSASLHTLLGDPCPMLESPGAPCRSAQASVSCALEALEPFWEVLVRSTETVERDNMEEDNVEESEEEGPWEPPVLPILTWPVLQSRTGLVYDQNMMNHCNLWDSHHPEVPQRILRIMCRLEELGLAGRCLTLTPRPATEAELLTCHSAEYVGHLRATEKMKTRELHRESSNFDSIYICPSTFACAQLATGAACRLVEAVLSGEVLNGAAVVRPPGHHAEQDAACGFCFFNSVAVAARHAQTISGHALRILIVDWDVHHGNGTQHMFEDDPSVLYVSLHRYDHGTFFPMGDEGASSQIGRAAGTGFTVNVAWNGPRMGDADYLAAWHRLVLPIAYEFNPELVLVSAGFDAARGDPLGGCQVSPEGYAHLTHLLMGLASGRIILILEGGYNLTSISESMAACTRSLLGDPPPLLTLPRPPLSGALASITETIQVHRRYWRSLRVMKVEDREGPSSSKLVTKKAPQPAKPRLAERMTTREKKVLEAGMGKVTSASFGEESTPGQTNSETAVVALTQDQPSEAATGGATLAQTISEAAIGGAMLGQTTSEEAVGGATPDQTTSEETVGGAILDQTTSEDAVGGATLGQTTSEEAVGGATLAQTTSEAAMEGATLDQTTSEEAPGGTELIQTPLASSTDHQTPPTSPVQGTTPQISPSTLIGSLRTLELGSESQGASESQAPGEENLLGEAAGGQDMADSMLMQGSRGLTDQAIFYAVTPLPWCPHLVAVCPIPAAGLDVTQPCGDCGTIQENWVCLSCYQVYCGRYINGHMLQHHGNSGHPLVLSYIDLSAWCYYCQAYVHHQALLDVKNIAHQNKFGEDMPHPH
Protocol: as §1

[1] = tested on: SK‐N‐BE(2)C neuroblastoma cell line; test: SK-N-BE(2)C cell viability assay (CellTiter-Blue); type: cell-based; settings: SK-N-BE(2)C cells; for effect on cell viability: up to 100 μM
Protocol: Cell viability assay: SK‐N‐BE(2)C cells were cultured in Dulbecco's modified Eagle medium (DMEM, Lonza, Basel, Switzerland) supplemented with 10 % fetal calf serum (FCS, Sigma‐Aldrich) and 1 % non‐essential amino acids (NEAA, Lonza). SK‐N‐BE(2)C cells were seeded from a confluent flask into 96‐well plates in 100 μL full growth medium at a density of 5×10^3 cells per well the day before treatment. Cells were treated in triplicates with drug concentrations as indicated in the respective figure. Drugs were dosed from 50 mM and 200 mM stock solutions with a D300e Digital Dispenser (Tecan) and DMSO concentrations were normalized to 0.2 % for all wells. Plates were shaken (1000 rpm orbital shaker, 30 s) and incubated under standard culture conditions for 72 h. To each well 20 μL of CellTiter‐Blue® reagent (G8081, Promega) was added, plates were shaken (600 rpm orbital shaker, 20 s) and incubated at 37 °C overnight. Fluorescence was measured (extinction/emission: 570 nm/590 nm) on a FluoStar Optima (BMG Labtech) plate reader. Cell viability was normalized with untreated positive controls and cell‐free negative controls. IC50‐values were calculated as described in the BRET assay.

Compound	IC50 (HDAC8) [nM]	IC50 (HDAC6) [nM]	pIC50 ([1]; 72 h)	effect on cell viability [1]
CN(C)Cc1nn(Cc2ccc(C(=O)NO)cc2)c2ccccc12 [Compound 1g]	851	–	–	–
CN1CCc2c(c3ccc(C(=O)NO)cc3n2Cc2ccc(C(=O)NO)cc2)C1 [Compound 3c]	513	47.9	–	–
O=C(NO)c1ccc(Cn2ccc3ccc(C(=O)NO)cc32)cc1 [Compound 3a]	67.6	18.2	–	–
CN(C)Cc1nn(Cc2ccc(C(=O)NO)cc2)c2cc(C(=O)NO)ccc12 [Compound 3g]	89.1	30.2	–	little effect
O=C(NO)c1ccc(Cn2ncc3ccc(C(=O)NO)cc32)cc1 [Compound 3f]	42.7	15.1	–	–

Further lines, with some results ahead:

IC50 (HDAC8) [nM]	IC50 (HDAC6) [nM]	pIC50 ([1]; 72 h)	Compound	effect on cell viability [1]
166	75.9	–	CN(C)Cc1cn(Cc2ccc(C(=O)NO)cc2)c2cc(C(=O)NO)ccc12 [Compound 3b]	–
97.7	22.4	5.15	O=C(NO)c1ccc(Cc2c[nH]c3ccc(C(=O)NO)cc23)cc1 [Compound 3d]	–
66.1	44.7	–	CN(C)CCn1cc(Cc2ccc(C(=O)NO)cc2)c2cc(C(=O)NO)ccc21 [Compound 3e]	little effect
